The test system of one experiment is 5-alpha-reductase. Kind of experiment: Time course of in vivo 5-alpha-reductase inhibition: T and DHT in rat ventral prostate (Table IV). The arrangement: species or system rats. The note with it: for DHT level / T level: ventral prostate, mean + SEM; for DHT level: ** P < .05; for T level: listed as name T not given.
For experiment [1], the system named is steroid 5-alpha-reductase. Kind of experiment: In vivo inhibition of steroid 5-alpha-reductase: T and DHT levels in rat ventral prostate, 6 hours after oral dosing (Table III). Also noted: species or system Male Charles River CD rats. Particulars: for DHT level / T level: ± SEM.
Experiment [2] concerns the target T1, human steroid 5-alpha-reductase (Homo sapiens, UniProt P31213).
T1 construct: Prostatic particles were obtained by differential centrifugation; from tissue; host or cells: hyperplastic human prostate, washed 140,000×g particulate fraction
T1 sequence (P31213 1-254): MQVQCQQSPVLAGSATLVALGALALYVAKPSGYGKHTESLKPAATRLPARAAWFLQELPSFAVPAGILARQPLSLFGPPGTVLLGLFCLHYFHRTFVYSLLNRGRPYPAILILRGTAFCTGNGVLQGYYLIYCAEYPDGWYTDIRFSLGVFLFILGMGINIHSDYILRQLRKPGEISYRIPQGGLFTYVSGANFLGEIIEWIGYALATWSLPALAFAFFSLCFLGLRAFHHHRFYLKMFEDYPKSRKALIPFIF
Description: Inhibition of human prostatic steroid 5-alpha-reductase ([14C]-testosterone conversion, Dixon plot). The experiment is classed as biochemical. Here is the method:
In determining potency in inhibiting the human enzyme, the following procedure was employed:
The tissue was homogenized in 3 to 5 volumes of 20 mM potassium phosphate, pH 6.5, buffer containing 0.33 M sucrose, 1 mM dithiothreitol, and 50 μM NADPH with a Brinkmann Polytron (Sybron Corporation, Westbury, N.Y.).
The resulting pellet was suspended in 20 mM potassium phosphate buffer, pH 6.5, containing 20% glycerol, 1 mM dithiothreitol, and 50 μM NADPH. The suspended particulate solution was stored at -80° C.
After incubating the solution at 37° C. for 20 to 30 minutes the reaction was quenched by the addition of 4 ml ethyl acetate and 0.25 μmol each of testosterone, dihydrotestosterone, androstanediol, and androstanedione as carriers. The organic layer was removed to a second test tube and evaporated to dryness in a Speed Vac. […] The radiochemical content in the bands of the substrate and the products was determined with a BIOSCAN Imaging Scanner (Bioscan, Inc., Washington, D.C.). The percent of recovered radiolabel converted to product was calculated, from which enzyme activity was determined. All incubations were conducted such that no more than 12% of the substrate (testosterone) was consumed.
The experimentally obtained data was computer fitted to a linear function by plotting the reciprocal of the enzyme activity (1/velocity) against the variable inhibitor concentration (Dixon, M. (1953), Biochem. J., 55, 170). Assuming that the steroidal inhibitor is a competitive inhibitor against testosterone, a value for the inhibition constant (Ki) can be calculated from equation 1: […]

For experiment [3], the system named is Steroid 5-alpha-reductase. The note with it: cited from earlier work; for Reversibility of inhibition: Table 1; for Inhibition of steroid 5-alpha-reductase, in words: literature description.
Where [4] appears, read: read-out: K1 (5-alpha-Reductase Inhibitors).
The mark [5] stands for this setting: human hyperplastic prostate particulate, pH 5.0, 37° C., read-out: Ki.

The source of these data is patent US4888336A, “Steroid 5-alpha-reductase inhibitors” (SmithKline Beckman Corporation, priority 1987, dated 1989).

The structures appear in SMILES notation. Read-outs that look alike come from different tables or passages of the source.

Turning to `CC(C)N(C(=O)[C@H]1CCC2=C3CC[C@H]4N(C)C(=O)CC[C@]4(C)[C@H]3CC[C@@]21C)C(C)C` [4-Methyl-4-aza-5-alpha-8(14)-androsten-3-one-17β-N,N-diisopropylcarboxamide], the T/DHT in the experiment on 5-alpha-reductase (1 Hour) is recorded as 1.00; with 5-alpha-reductase (2 Hours) it was “.97”; in the experiment on 5-alpha-reductase (4 Hours), 1.20; with 5-alpha-reductase (8 Hours), 1.13. The DHT level entry in the experiment on 5-alpha-reductase (1 Hour) is “.532 ± .08 ng/100 mg tissue”; in the experiment with 5-alpha-reductase (2 Hours), “.496 ± .05 ng/100 mg tissue”; in the experiment on 5-alpha-reductase (4 Hours), “.504 ± .09 ng/100 mg tissue”; in the experiment with 5-alpha-reductase (8 Hours), “.498 ± .04 ng/100 mg tissue”. For the same molecule, the T level entry is reported as “.533 ± .15 ng/100 mg tissue” with 5-alpha-reductase (1 Hour), “.481 ± .12 ng/100 mg tissue” in the experiment on 5-alpha-reductase (2 Hours), “.607 ± .24 ng/100 mg tissue” in the experiment with 5-alpha-reductase (4 Hours) and “.565 ± .16 ng/100 mg tissue” in the experiment with 5-alpha-reductase (8 Hours). The “Difference in DHT levels compared to controls, in words” value in the experiment on 5-alpha-reductase (at 1, 2, 4, and 8 hours, P < .05) is reported as “significant differences in DHT levels”.

Consider `C[C@@H](C(=O)O)[C@H]1CCC2=C3CC[C@H]4N(C)C(=O)CC[C@]4(C)[C@H]3CC[C@@]21C` [4-Methyl-4-aza-5-alpha-8(14)-pregnen-3-one-(20R)-20-carboxylic acid], for which the figures for the T/DHT in experiment [1] (5 mg/kg oral), in experiment [1] (10 mg/kg oral) and in experiment [1] (20 mg/kg oral) were 0.79, 0.76 and 0.88, respectively. In addition, the DHT level in experiment [1] (5 mg/kg oral) is given as 0.43 ± .12 ng/100 mg ventral prostate tissue; in experiment [1] (10 mg/kg oral), 0.34 ± .09 ng/100 mg ventral prostate tissue; in experiment [1] (20 mg/kg oral), 0.34 ± .06 ng/100 mg ventral prostate tissue. Besides, the T level in experiment [1] (5 mg/kg oral) was 0.34 ± .11 ng/100 mg ventral prostate tissue; in experiment [1] (10 mg/kg oral) it was 0.26 ± .07 ng/100 mg ventral prostate tissue; in experiment [1] (20 mg/kg oral), 0.30 ± .04 ng/100 mg ventral prostate tissue.

In experiment [2], `C[C@@H](CO)[C@H]1CCC2=C3CC[C@H]4N(C)C(=O)CC[C@]4(C)[C@H]3CC[C@@]21C` [(1)] showed a Ki of 450 ± 20 nM.

Consider `C[C@]12CC[C@H]3[C@@H](CCC4=CC(=O)CC[C@@]43C)[C@@H]1CC[C@@H]2C(=O)O` [(1)], for which the Reversibility of inhibition result in experiment [3] was “Reversible”. Also, the Ki in experiment [3] (setting [4]) is 1100 nM.

On to `CC(=O)C1CCC2C3CC=C=CC(=O)CCC(=O)C3CCC12C` (stereo not shown) [(2)], for which the Reversibility of inhibition entry in experiment [3] was “Irreversible”. Further, in experiment [3] (setting [4]), the Ki was 1000 nM.

For `C[C@@H](C(=O)O)[C@H]1CCC2=C3CC[C@H]4N(C)C(=O)CC[C@]4(C)[C@H]3CC[C@@]21C` [(2)], in experiment [2] (setting [5]), the Ki amounted to 100 ± 10 nM.

Consider `CC(C)N(C(=O)[C@H]1CCC2=C3CC[C@H]4N(C)C(=O)CC[C@]4(C)[C@H]3CC[C@@]21C)C(C)C` [(3)], for which the Ki in experiment [2] (setting [5]) was 8 ± 2 nM.

`CC(CO)[C@H]1CC[C@H]2[C@@H]3CC[C@H]4C(=[N+]=[N-])C(=O)CC[C@]4(C)[C@H]3CC[C@]12C` (stereo partly shown) [(3)]: in experiment [3], the Reversibility of inhibition result was “Irreversible” and the “Inhibition of steroid 5-alpha-reductase, in words” value was “potent, time-dependent inhibitor”. Besides, the Ki in experiment [3] (line (3) printed without unit, read-out: K1 (5-alpha-Reductase Inhibitors), unit inferred) was 35 nM.

For the molecule `CCN(CC)C(=O)[C@H]1CC[C@H]2[C@@H]3CC[C@H]4N(C)C(=O)CC[C@]4(C)[C@H]3CC[C@]12C` [(4)], the Reversibility of inhibition entry in experiment [3] is “Reversible”. Besides, the Ki in experiment [3] (setting [4]) was 5 nM.

On to `C=C1C[C@@H]2[C@H](CC[C@@]3(C)[C@H]2CC[C@]3(OC(C)=O)C(C)=O)[C@@]2(C)CCC(=O)C=C12` [(5)], for which, in experiment [3], the Reversibility of inhibition entry was “Irreversible” and the “Inhibition of steroid 5-alpha-reductase, in words” value is “time-dependent inactivator”. Further, the Ki in experiment [3] (setting [4]) is 1250 nM.

`C[C@@H](CO)[C@H]1CCC2=C3CC[C@H]4N(C)C(=O)CC[C@]4(C)[C@H]3CC[C@@]21C` [(20R)-Hydroxymethyl-4-methyl-4-aza-5-alpha-8(14)-pregnen-3-one]: in experiment [1] (5 mg/kg oral), the T/DHT worked out at 0.72, the DHT level was 0.72 ± .21 ng/100 mg ventral prostate tissue and the T level was 0.52 ± .27 ng/100 mg ventral prostate tissue. Besides, in experiment [1] (10 mg/kg oral), the T/DHT stood at 0.83, the DHT level is recorded as 0.53 ± .12 ng/100 mg ventral prostate tissue and the T level is recorded as 0.44 ± .13 ng/100 mg ventral prostate tissue. Moreover, in experiment [1] (20 mg/kg oral), the T/DHT was 0.92, the DHT level is on record as 0.49 ± .14 ng/100 mg ventral prostate tissue and the T level is 0.45 ± .12 ng/100 mg ventral prostate tissue.
